# Legend:
# Assay type in all cases: functional
# Conditions in all cases: Mus musculus
# [1] = tested on: B16; assay: Inhibition of invasion of B16 melanoma cells by 100 uM concentration of the compound
# [2] = tested on: B16; assay: Inhibition of invasion of B16 melanoma cells by 10 uM concentration of the compound
# [3] = tested on: B16; assay: Inhibition of invasion of B16 melanoma cells by 1 uM concentration of the compound
# [4] = tested on: B16; assay: Inhibition of invasion of B16 melanoma cells by 0.1 uM concentration of the compound
# [5] = tested on: B16; assay: Inhibition of lung metastasis of B16 melanoma cells in mice after 20 mg/kg po administration of the compound
# [6] = tested on: B16; assay: Inhibition of invasion of B16 melanoma cells by 0.01 uM concentration of the compound
smiles,measurement,setting,value
C[C@@H]1CC[C@@H](c2ccoc2)N2C[C@@]3(CC[C@@H]12)C[S+]([O-])[C@]1(CC[C@H]2[C@H](C)CC[C@@H](c4ccoc4)N2C1)C3 (stereo partly drawn),inhibition at 100 µM,[1],0%
same,inhibition at 10 µM,[2],9.2%
same,inhibition at 1 µM,[3],10.2%
same,inhibition at 0.1 µM,[4],-8.1%
C[C@@H]1CC[C@@H](c2ccoc2)N2C[C@@]3(CC[C@@H]12)CS[C@@]1(CC[C@H]2[C@H](C)CC[C@@H](c4ccoc4)N2[C@@H]1O)C3,inhibition at 100 µM,[1],86.8%
same,inhibition at 10 µM,[2],84.8%
same,inhibition at 1 µM,[3],66.5%
same,inhibition in vivo at 20 mg/kg,[5],94%
same,inhibition at 0.01 µM,[6],50.9%
same,inhibition at 0.1 µM,[4],57.5%
C[C@H]1CC[C@H]2[C@H](C)CC[C@@H](c3ccoc3)N2C1,inhibition at 100 µM,[1],19.1%
same,inhibition at 10 µM,[2],28.5%
same,inhibition at 1 µM,[3],14%
same,inhibition at 0.1 µM,[4],-5.1%
C[C@@H]1CC[C@@H](c2ccoc2)N2[C@H]1CC[C@@]1(CS[C@@]3(CC[C@H]4[C@H](C)CC[C@@H](c5ccoc5)N4[C@@H]3O)C1)[C@H]2O,inhibition at 100 µM,[1],86.6%
same,inhibition at 10 µM,[2],83.2%
same,inhibition at 1 µM,[3],68.5%
same,inhibition at 0.01 µM,[6],40.3%
same,inhibition at 0.1 µM,[4],43.1%
C[C@@H]1CC[C@@H](c2ccoc2)N2C[C@]3(CC[C@@H]12)C[S+]([O-])[C@]1(CC[C@H]2[C@H](C)CC[C@@H](c4ccoc4)N2C1)C3 (stereo partly drawn),inhibition at 100 µM,[1],15.7%
same,inhibition at 10 µM,[2],12.8%
same,inhibition at 1 µM,[3],18.5%
same,inhibition at 0.1 µM,[4],10.6%
C[C@H]1CC[C@H]2[C@H](C)CC[C@@H](c3ccoc3)[N@@+]2([O-])C1,inhibition at 100 µM,[1],47.2%
same,inhibition at 10 µM,[2],41.4%
same,inhibition at 1 µM,[3],34.7%
same,inhibition at 0.1 µM,[4],19.6%
C[C@@H]1CC[C@@H](c2ccoc2)N2C[C@@]3(CC[C@@H]12)C[S+]([O-])[C@@]1(CC[C@H]2[C@H](C)CC[C@@H](c4ccoc4)N2C1)C3 (stereo partly drawn),inhibition at 100 µM,[1],32.5%
same,inhibition at 10 µM,[2],42.2%
same,inhibition at 1 µM,[3],38.3%
same,inhibition at 0.1 µM,[4],16.9%
C[C@@H]1CC[C@@H](c2ccoc2)N2C[C@@]3(CC[C@@H]12)CS[C@]1(CC[C@H]2[C@H](C)CC[C@@H](c4ccoc4)N2[C@@H]1O)C3 [6-HYDROXYTHIONUPHLUTINE B],inhibition at 100 µM,[1],47.1%
same,inhibition at 10 µM,[2],61.4%
same,inhibition at 1 µM,[3],62.7%
same,inhibition at 0.01 µM,[6],5.9%
same,inhibition at 0.1 µM,[4],31.6%
C[C@@H]1CC[C@H]2[C@H](C)CC[C@@H](c3ccoc3)N2C1 [(-)-7-EPI-DEOXYNUPHARIDINE],inhibition at 100 µM,[1],23%
same,inhibition at 10 µM,[2],20.9%
same,inhibition at 1 µM,[3],25.3%
same,inhibition at 0.1 µM,[4],5.1%
COc1cc(C=CC(=O)CC(=O)/C=C/c2ccc(O)c(OC)c2)ccc1O [CURCUMIN],inhibition in vivo at 20 mg/kg,[5],87%
C[C@@H]1CC[C@@H](c2ccoc2)N2C[C@]3(CC[C@@H]12)CS[C@]1(CC[C@H]2[C@H](C)CC[C@@H](c4ccoc4)N2C1)C3 [NEOTHIOBINUPHARIDINE],inhibition at 100 µM,[1],28.3%
same,inhibition at 10 µM,[2],33.2%
same,inhibition at 1 µM,[3],18.9%
same,inhibition at 0.1 µM,[4],11.9%
C[C@@H]1CC[C@@H](c2ccoc2)N2C[C@](C)(O)CC[C@@H]12 [NUPHAROLUTINE],inhibition at 100 µM,[1],-0.6%
same,inhibition at 10 µM,[2],16.8%
same,inhibition at 1 µM,[3],1.7%
same,inhibition at 0.1 µM,[4],25.5%
C[C@@H]1CC[C@@H](c2ccoc2)N2C[C@@]3(CC[C@@H]12)CS[C@@]1(CC[C@H]2[C@H](C)CC[C@@H](c4ccoc4)N2C1)C3 [THIOBINUPHARIDINE],inhibition at 100 µM,[1],22.7%
same,inhibition at 10 µM,[2],15.6%
same,inhibition at 1 µM,[3],9.7%
same,inhibition at 0.1 µM,[4],5.2%

# Reference: ChEMBL document CHEMBL1136494, “Potent anti-metastatic activity of dimeric sesquiterpene thioalkaloids from the rhizome of Nuphar pumilum” (2003)
